Data published in US8338472B2, “Hexahydrocyclopentyl[F]indazole carboxamides and derivatives thereof as selective glucocorticoid receptor modulators” (Merck Sharp & Dohme Corp., priority 2008, dated 2012).
Where two headings read alike, the source gives them in different places.

Columns and labels:
[1] = molecular target: T1, Glucocorticoid Receptor (Homo sapiens, UniProt P04150); assay: Trans-Activation Modulation of Glucocorticoid Receptor (GRAMMER), MMTV-LUC reporter gene in A549 cells; assay type: cell-based; settings: Table 1; for Emax: A549, A549 cells, Emax relative to 300 nM dexamethasone, read-out: Transactivation A549 Cells GRAMMER Emax; for EC50: inflection point, A549 cells, read-out: Transactivation A549 Cells GRAMMER IP
T1 construct: These cells express large amount of the GR and are very responsive to GC treatment; endogenous in cells; host or cells: A549 cells transiently transfected with the MMTV-LUC reporter
T1 sequence (P04150 1-777): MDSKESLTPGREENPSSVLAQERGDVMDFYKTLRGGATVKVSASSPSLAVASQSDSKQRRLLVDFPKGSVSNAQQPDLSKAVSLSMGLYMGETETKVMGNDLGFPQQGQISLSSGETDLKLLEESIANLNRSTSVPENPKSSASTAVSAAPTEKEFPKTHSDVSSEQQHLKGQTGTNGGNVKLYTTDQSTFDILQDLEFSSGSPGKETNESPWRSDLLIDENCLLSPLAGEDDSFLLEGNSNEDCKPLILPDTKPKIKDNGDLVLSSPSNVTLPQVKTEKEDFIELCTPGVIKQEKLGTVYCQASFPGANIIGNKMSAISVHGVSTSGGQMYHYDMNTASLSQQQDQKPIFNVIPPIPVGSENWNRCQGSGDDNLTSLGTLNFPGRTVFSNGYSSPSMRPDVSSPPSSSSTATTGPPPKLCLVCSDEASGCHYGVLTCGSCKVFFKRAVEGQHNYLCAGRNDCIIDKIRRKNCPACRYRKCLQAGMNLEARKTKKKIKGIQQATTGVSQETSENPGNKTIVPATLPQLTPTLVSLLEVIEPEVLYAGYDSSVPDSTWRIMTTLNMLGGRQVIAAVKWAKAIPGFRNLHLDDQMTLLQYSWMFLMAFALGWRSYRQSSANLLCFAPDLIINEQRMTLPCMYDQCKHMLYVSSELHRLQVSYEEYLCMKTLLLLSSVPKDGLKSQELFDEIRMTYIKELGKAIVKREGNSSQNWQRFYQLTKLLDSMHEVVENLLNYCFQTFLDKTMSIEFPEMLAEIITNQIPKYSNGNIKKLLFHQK
In short: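 Luciferase from a transiently transfected MMTV-LUC reporter was measured after 24 h compound exposure (≤1% DMSO) in A549 or MDA-MB-453 cells. For antagonism, the decrease of 10 nM dexamethasone-induced signal was calculated. For agonism, Emax was referenced to 300 nM dexamethasone.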

[2] = molecular target: T2, glucocorticoid receptor (GR) (Homo sapiens, UniProt P04150); assay: Ligand binding assay (GR BIND), 3H-dexamethasone displacement in MDA-MB-453 cell lysate; settings: GR BIND Ki, Table 1
T2 sequence (P04150 1-777): T1 sequence (P04150 1-777)
Description: Binding Buffer: TEGM (10 mM Tris-HCl, 1 mM EDTA, 10% glycerol, 1 mM beta-mecaptoethanol, 10 mM Sodium Molybdate, pH 7.2)
50% HAP Slurry: Calbiochem Hydroxylapatite, Fast Flow, in 10 mM Tris, pH 8.0 and 1 mM EDTA.
Wash Buffer: 40 mM Tris, pH7.5, 100 mM KCl, 1 mM EDTA and 1 mM EGTA.
Dexmethasone-methyl-^3H, (DEX*); (Amersham cat# TRK645)
Dexamethasone(DEX) (Sigma, cat# D1756):
The cell pellet is washed twice with TEGM (10 mM Tris-HCl, 1 mM EDTA, 10% glycerol, 1 mM beta-mercaptoethanol, 10 mM Sodium Molybdate, pH 7.2). After the final wash, the cells are resuspended in TEGM at a concentration of 10^7 cells/mL. The cell suspension is snap frozen in liquid nitrogen or ethanol/dry ice bath and transferred to −80° C. freezer on dry ice. Before setting up the binding assay, the frozen samples are left on ice-water to just thaw (˜1 hr). Then the samples are centrifuged at 12,500 g to 20,000 g for 30 min at 4° C. The supernatant is used to set-up assay right away. If using 50 μL of supernatant, the test compound can be prepared in 50 μL of the TEGM buffer.
Procedure for Multiple Compound Screening
1×TEGM buffer is prepared, and the isotope-containing assay mixture is prepared in the following order: EtOH (2% final concentration in reaction), ^3H-DEX (Amersham Biosciences) and 1×TEGM. [e.g. For 100 samples, 200 μL (100×2) of EtOH+4.25 μL of 1:10 ^3H-Dex stock+2300 μL (100×23) 1×TEGM]. The compound is serially diluted, e.g., if starting final conc. is 1 μM, and the compound is in 25 μL of solution, for duplicate samples, 75 μL of 4×1 μM solution is made and 3 μL of 100 μM is added to 72 μL of buffer, and 1:5 serial dilution.
25 μL of ^3H-DEX (6 nM) trace and 25 μL compound solution are first mixed together, followed by addition of 50 μL receptor solution. The reaction is gently mixed, spun briefly at about 200 rpm and incubated at 4° C. overnight. 100 μL of 50% HAP slurry is prepared and added to the incubated reaction which is then vortexed and incubated on ice for 5 to 10 minutes. The reaction mixture is vortexed twice more to resuspend HAP while incubating reaction. The samples in 96-well format are then washed in wash buffer using The FilterMate™ Universal Harvester plate washer (Packard). The washing process transfers HAP pellet containing ligand-bound expressed receptor to Unifilter-96 GF/B filter plate (Packard). The HAP pellet on the filter plate is incubated with 50 μL of MICROSCINT (Packard) scintillint for 30 minutes before being counted on the TopCount microscintillation counter (Packard). IC50s are calculated using DEX as a reference.

[3] = molecular target: T3, human GR (Homo sapiens, UniProt P04150); assay: Transrepression Assay (GITAR), TNFα-β-lactamase reporter gene in U937 cells; assay type: cell-based; settings: for GITAR Greater than by GRAMMER % SEP: GITAR Emax minus GRAMMER Emax; for EC50: inflection point, U937 cells, read-out: Transrepression U937 Cells GITAR IP
T3 construct: U937 cells contain an endogenous glucocorticoid receptor (GR); endogenous in cells; host or cells: U937 cells stably transfected with the TNF-alpha promoter/beta-lactamase reporter
T3 sequence (P04150 1-777): T1 sequence (P04150 1-777)
In short: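 Repression of PMA (5 ng/ml final)/LPS (100 ng/ml final)-induced TNF-α promoter activity, read as β-lactamase cleavage of CCF2-AM, in stably transfected U937 cells expressing native GR. Compound added 30-45 min before stimulation, overnight (~18 hr) 37° C; normalized to 100 nM dexamethasone (100%).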

[4] = U-937, U937 cells, activity repressed by 100 nM dexamethasone = 100%, Table 1, read-out: Transrepression U937 Cells GITAR Emax
[5] = U-937, text statement, 100 nM dexamethasone = 100%, read-out: maximal activity in the transrepression assay (GITAR)

SMILES | Emax [1] | EC50 [1] | Ki [2] | GITAR Greater than by GRAMMER % SEP ([3]; Table 1) | Emax [3, 4] | Emax [3, 5] | EC50 ([3]; Table 1)
C[C@]12Cc3cnn(-c4ccc(F)cc4)c3C=C1CC[C@@H]2C(=O)N(CCO)Cc1ccccc1CS(=O)(=O)c1ccccc1 [Compound 30, (4αR,5S)-1-(4-fluorophenyl)-N-(2-hydroxyethyl)-4α-methyl-N-{2-[(phenylsulfonyl)methyl]benzyl}-1,4,4α,5,6,7-hexahydrocyclopenta[f] carboxamide] | 4.3% | 1.11 µM | 0.0122 µM | 31.2% | 35.5% | > 5% | 1.08 µM
C[C@]12Cc3cnn(-c4ccc(F)cc4)c3C=C1CC[C@@H]2C(=O)N(CCO)Cc1cc(F)cc(F)c1 [Compound 32, (4αR,5S)-N-(3,5-difluorobenzyl)-1-(4-fluorophenyl)-N-(2-hydroxyethyl)-4α-methyl-1,4,4α,5,6,7-hexahydrocyclopenta[f]indazole-5-carboxamide] | 17.1% | 0.872 µM | 0.0111 µM | 47.1% | 64.3% | > 5% | 1.03 µM
COc1cc(CN(CCO)C(=O)[C@H]2CCC3=Cc4c(cnn4-c4ccc(F)cc4)C[C@@]32C)cc(OC)c1 [Compound 34, (4αR,5S)-N-(3,5-dimethoxybenzyl)-1-(4-fluorophenyl)-N-(2-hydroxyethyl)-4α-methyl-1,4,4α,5,6,7-hexahydrocyclopenta[f]indazole-5-carboxamide] | 22.2% | 1.51 µM | 0.012 µM | 44.1% | 66.3% | > 5% | 0.644 µM
C[C@]12Cc3cnn(-c4ccc(F)cc4)c3C=C1CC[C@@H]2C(=O)N(CCO)CCc1ccccc1 [Compound 35, (4αR,5S)-1-(4-fluorophenyl)-N-(2-hydroxyethyl)-4α-methyl-N-(2-phenylethyl)-1,4,4α,5,6,7-hexahydrocyclopenta[f]indazole-5-carboxamide] | 31.8% | 2.65 µM | 0.0147 µM | 30.8% | 62.6% | > 5% | 0.945 µM
CCCN(CCO)C(=O)[C@H]1CCC2=Cc3c(cnn3-c3ccc(F)cc3)C[C@@]21C [Compound 37, (4αR,5S)-1-(4-fluorophenyl)-N-(2-hydroxyethyl)-4α-methyl-N-propyl-1,4,4α,5,6,7-hexahydrocyclopenta[f]indazole-5-carboxamide] | 5.7% | 2.55 µM | 0.168 µM | 31.3% | 37% | > 5% | 3.42 µM
CN(CC#N)C(=O)[C@H]1CCC2=Cc3c(cnn3-c3ccc(F)cc3)C[C@@]21C [Compound 41, (4αR,5S)-N-(cyanomethyl)-1-(4-fluorophenyl)-N,4α-dimethyl-1,4,4α,5,6,7-hexahydrocyclopenta[f]indazole-5-carboxamide] | 5.6% | 4.05 µM | 0.0443 µM | 35.4% | 41% | > 5% | 2.36 µM

The remaining compounds from weak to strong by EC50 [1], led by results:

Emax [1] | EC50 [1] | Ki [2] | GITAR Greater than by GRAMMER % SEP ([3]; Table 1) | Emax [3, 4] | Emax [3, 5] | EC50 ([3]; Table 1) | SMILES
1.5% | 5 µM | 0.0498 µM | 19.5% | 21% | > 5% | 0.385 µM | COC[C@H]1CCCN1C(=O)[C@H]1CCC2=Cc3c(cnn3-c3ccc(F)cc3)C[C@@]21C [Compound 43, (4αR,5S)-1-(4-fluorophenyl)-5-{[(2R)-2-(methoxymethyl)pyrrolidin-1-yl]carbonyl}-4α-methyl-1,4,4α,5,6,7-hexahydrocyclopenta[f]indazole]
2.7% | 3.29 µM | 0.0391 µM | 29.8% | 32.5% | > 5% | 1.84 µM | C[C@]12Cc3cnn(-c4ccc(F)cc4)c3C=C1CC[C@@H]2C(=O)N(CCO)CC(=O)c1coc2ccccc12 [Compound 29, (4αR,5S)-N-[2-(1-benzofuran-3-yl)-2-oxoethyl]-1-(4-fluorophenyl)-N-(2-hydroxyethyl)-4α-methyl-1,4,4α,5,6,7-hexahydrocyclopenta[f]indazole-5-carboxamide]
12.2% | 0.901 µM | 0.0077 µM | 44.1% | 56.3% | > 5% | 1.52 µM | C[C@]12Cc3cnn(-c4ccc(F)cc4)c3C=C1CC[C@@H]2C(=O)N(CCO)Cc1cccc(F)c1 [Compound 33, (4αR,5S)-N-(3-fluorobenzyl)-1-(4-fluorophenyl)-N-(2-hydroxyethyl)-4α-methyl-1,4,4α,5,6,7-hexahydrocyclopenta[f]indazole-5-carboxamide]
12.5% | 0.872 µM | 0.0117 µM | 54.9% | 67.4% | > 5% | 1.28 µM | C[C@]12Cc3cnn(-c4ccc(F)cc4)c3C=C1CC[C@@H]2C(=O)N(CCO)Cc1ccccc1 [Compound 36, (4αR,5S)-N-benzyl-1-(4-fluorophenyl)-N-(2-hydroxyethyl)-4α-methyl-1,4,4α,5,6,7-hexahydrocyclopenta[f]indazole-5-carboxamide]
37.5% | 0.66 µM | 0.0146 µM | 47.3% | 84.7% | > 5% | 0.739 µM | CCCCCN(CCO)C(=O)[C@H]1CCC2=Cc3c(cnn3-c3ccc(F)cc3)C[C@@]21C [Compound 38, (4αR,5S)-1-(4-fluorophenyl)-N-(2-hydroxyethyl)-4α-methyl-N-pentyl-1,4,4α,5,6,7-hexahydrocyclopenta[f]indazole-5-carboxamide]
27% | 0.535 µM | 0.0044 µM | 67.4% | 94.3% | > 5% | 0.125 µM | CCCCN(CC=O)C(=O)[C@H]1CCC2=Cc3c(cnn3-c3ccc(F)cc3)C[C@@]21C [Compound 39, (4αR,5S)-N-butyl-1-(4-fluorophenyl)-4α-methyl-N-(2-oxoethyl)-1,4,4α,5 ,6,7-hexahydrocyclopenta[f]indazole-5-carboxamide]
29.5% | 0.419 µM | 0.0212 µM | 35.3% | 64.8% | > 5% | 0.889 µM | C[C@]12Cc3cnn(-c4ccc(F)cc4)c3C=C1CC[C@@H]2C(=O)N1CCC(C(F)(F)F)CC1 [Compound 42, (4αR,5S)-1-(4-fluorophenyl)-4α-methyl-5-{[4-(trifluoromethyl)piperidin-1-yl]carbonyl}-1,4,4α,5,6,7-hexahydrocyclopenta[f]indazole]
2.6% | 0.359 µM | 0.0079 µM | 12.9% | 15.5% | > 5% | 1.23 µM | C[C@]12Cc3cnn(-c4ccc(F)cc4)c3C=C1CC[C@@H]2C(=O)N(CCO)Cc1csc2ccc(Cl)cc12 [Compound 31, (4αR,5S)-N-[(5-chloro-1-benzothien-3-yl)methyl]-1-(4-fluorophenyl)-N-(2-hydroxyethyl)-4α-methyl-1,4,4α,5,6,7-hexahydrocyclopenta[f]indazole-5-carboxamide]
66.4% | 0.108 µM | 0.0051 µM | 20.4% | 86.8% | > 5% | 0.141 µM | CCCCN(CC(C)O)C(=O)[C@H]1CCC2=Cc3c(cnn3-c3ccc(F)cc3)C[C@@]21C (stereo partly drawn) [Compound 40, (4αR,5S)-N-butyl-1-(4-fluorophenyl)-N-(2-hydroxypropyl)-4α-methyl-1,4,4α,5,6,7-hexahydrocyclopenta[f]indazole-5-carboxamide]
